{
  "source": "PubChem BioAssay (NCI)",
  "test_in_all_cases": "inhibition of tumour cell growth, NCI panel, 48 h",
  "key": {"[1]": {"system": "A549 NSCLC"}, "[2]": {"system": "K-562 leukemia"}, "[3]": {"system": "A498 renal"}, "[4]": {"system": "OVCAR-3 ovarian"}, "[5]": {"system": "MOLT-4 leukemia"}, "[6]": {"system": "HCT-15 colon"}, "[7]": {"system": "DU-145 prostate"}, "[8]": {"system": "HOP-62 NSCLC"}, "[9]": {"system": "NCI-H460 lung"}, "[10]": {"system": "IGROV1 ovarian"}, "[11]": {"system": "SK-MEL-5 melanoma"}, "[12]": {"system": "SK-MEL-28 melanoma"}, "[13]": {"system": "NCI-H23 lung"}, "[14]": {"system": "MCF7 breast"}, "[15]": {"system": "SNB-75 CNS"}, "[16]": {"system": "HS 578T breast"}, "[17]": {"system": "HCC-2998 colon"}, "[18]": {"system": "HL-60(TB) leukemia"}, "[19]": {"system": "NCI-H522 lung"}, "[20]": {"system": "OVCAR-8 ovarian"}, "[21]": {"system": "OVCAR-5 ovarian"}, "[22]": {"system": "HT29 colon"}, "[23]": {"system": "ACHN renal"}, "[24]": {"system": "SN12C renal"}, "[25]": {"system": "SR leukemia"}, "[26]": {"system": "MALME-3M melanoma"}, "[27]": {"system": "COLO 205 colon"}, "[28]": {"system": "CAKI-1 renal"}},
  "note": "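Dose response: 5 concentrations. Exposure: 48 h. Format: 96-well plates. Endpoint: linear interpolation; highest concentration if not reached. Abbreviation: GI50, concentration required for 50% inhibition of growth. TGI: concentration producing complete growth inhibition.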",
  "data": [
    {"smiles": "Cc1cccc(-n2cnc3cc(C(=O)N4CCCCC4)ccc32)c1", "values": [
      {"measurement": "GI50", "setting": "[1]", "result": 85.5, "unit": "µM"},
      {"measurement": "TGI", "setting": "[1]", "result": "> 100", "unit": "µM"},
      {"measurement": "GI50", "setting": "[2]", "result": 59.9, "unit": "µM"},
      {"measurement": "TGI", "setting": "[2]", "result": "> 100", "unit": "µM"},
      {"measurement": "GI50", "setting": "[3]", "result": 51.3, "unit": "µM"},
      {"measurement": "TGI", "setting": "[3]", "result": "> 100", "unit": "µM"},
      {"measurement": "GI50", "setting": "[4]", "result": 54.9, "unit": "µM"},
      {"measurement": "TGI", "setting": "[4]", "result": "> 100", "unit": "µM"},
      {"measurement": "GI50", "setting": "[5]", "result": "> 100", "unit": "µM"},
      {"measurement": "TGI", "setting": "[5]", "result": "> 100", "unit": "µM"},
      {"measurement": "GI50", "setting": "[6]", "result": 56.6, "unit": "µM"},
      {"measurement": "TGI", "setting": "[6]", "result": "> 100", "unit": "µM"},
      {"measurement": "GI50", "setting": "[7]", "result": "> 100", "unit": "µM"},
      {"measurement": "TGI", "setting": "[7]", "result": "> 100", "unit": "µM"},
      {"measurement": "GI50", "setting": "[8]", "result": "> 100", "unit": "µM"},
      {"measurement": "TGI", "setting": "[8]", "result": "> 100", "unit": "µM"},
      {"measurement": "GI50", "setting": "[9]", "result": "> 100", "unit": "µM"},
      {"measurement": "TGI", "setting": "[9]", "result": "> 100", "unit": "µM"},
      {"measurement": "GI50", "setting": "[10]", "result": "> 100", "unit": "µM"},
      {"measurement": "TGI", "setting": "[10]", "result": "> 100", "unit": "µM"},
      {"measurement": "GI50", "setting": "[11]", "result": 20, "unit": "µM"},
      {"measurement": "TGI", "setting": "[11]", "result": 53.1, "unit": "µM"},
      {"measurement": "GI50", "setting": "[12]", "result": 59.1, "unit": "µM"},
      {"measurement": "TGI", "setting": "[12]", "result": "> 100", "unit": "µM"},
      {"measurement": "GI50", "setting": "[13]", "result": "> 100", "unit": "µM"},
      {"measurement": "TGI", "setting": "[13]", "result": "> 100", "unit": "µM"},
      {"measurement": "GI50", "setting": "[14]", "result": 48.4, "unit": "µM"},
      {"measurement": "TGI", "setting": "[14]", "result": "> 100", "unit": "µM"},
      {"measurement": "GI50", "setting": "[15]", "result": 30, "unit": "µM"},
      {"measurement": "TGI", "setting": "[15]", "result": "> 100", "unit": "µM"},
      {"measurement": "GI50", "setting": "[16]", "result": 72.7, "unit": "µM"},
      {"measurement": "TGI", "setting": "[16]", "result": "> 100", "unit": "µM"},
      {"measurement": "GI50", "setting": "[17]", "result": "> 100", "unit": "µM"},
      {"measurement": "TGI", "setting": "[17]", "result": "> 100", "unit": "µM"},
      {"measurement": "GI50", "setting": "[18]", "result": "> 100", "unit": "µM"},
      {"measurement": "TGI", "setting": "[18]", "result": "> 100", "unit": "µM"},
      {"measurement": "GI50", "setting": "[19]", "result": "> 100", "unit": "µM"},
      {"measurement": "TGI", "setting": "[19]", "result": "> 100", "unit": "µM"},
      {"measurement": "GI50", "setting": "[20]", "result": 91.9, "unit": "µM"},
      {"measurement": "TGI", "setting": "[20]", "result": "> 100", "unit": "µM"},
      {"measurement": "GI50", "setting": "[21]", "result": "> 100", "unit": "µM"},
      {"measurement": "TGI", "setting": "[21]", "result": "> 100", "unit": "µM"},
      {"measurement": "GI50", "setting": "[22]", "result": "> 100", "unit": "µM"},
      {"measurement": "TGI", "setting": "[22]", "result": "> 100", "unit": "µM"},
      {"measurement": "GI50", "setting": "[23]", "result": "> 100", "unit": "µM"},
      {"measurement": "TGI", "setting": "[23]", "result": "> 100", "unit": "µM"},
      {"measurement": "GI50", "setting": "[24]", "result": "> 100", "unit": "µM"},
      {"measurement": "TGI", "setting": "[24]", "result": "> 100", "unit": "µM"},
      {"measurement": "GI50", "setting": "[25]", "result": "> 100", "unit": "µM"},
      {"measurement": "TGI", "setting": "[25]", "result": "> 100", "unit": "µM"},
      {"measurement": "GI50", "setting": "[26]", "result": "> 100", "unit": "µM"},
      {"measurement": "TGI", "setting": "[26]", "result": "> 100", "unit": "µM"},
      {"measurement": "GI50", "setting": "[27]", "result": 49.9, "unit": "µM"},
      {"measurement": "TGI", "setting": "[27]", "result": "> 100", "unit": "µM"},
      {"measurement": "GI50", "setting": "[28]", "result": "> 100", "unit": "µM"},
      {"measurement": "TGI", "setting": "[28]", "result": "> 100", "unit": "µM"}
    ]}
  ]
}
